22 molecules from ChEMBL document CHEMBL4184199, “Structural optimization of N1-aryl-benzimidazoles for the discovery of new non-nucleoside reverse transcriptase inhibitors active against wild-type and mutant HIV-1 strains” (Bioorg Med Chem, 2018) can be followed below.

Data set [1] concerns Human immunodeficiency virus 1. Put plainly: Antiviral activity against HIV1 3B infected in human MT4 cells assessed as reduction in virus-induced cytopathic effect after 5 days by MTT assay. The following applies: Human immunodeficiency virus 1, 3B, MT4, 120 h. Type of data set: functional, organism-based.
Data set [2] is described as follows: Selectivity index, ratio of CC50 for human MT4 cells to EC50 for HIV1 3B expressing wild type reverse transcriptase. Type of data set: toxicity. Conditions: read-out: Ratio CC50/EC50.
For data set [3], the system named is Human immunodeficiency virus 2. Put plainly: Antiviral activity against HIV2 ROD infected in human MT4 cells assessed as reduction in virus-induced cytopathic effect after 5 days by MTT assay. The class given is functional, organism-based. Conditions: ISOLATE ROD. (Protection from cytopathic effect is a common read-out in antiviral testing.)
The target in data set [4] is Human immunodeficiency virus type 1 reverse transcriptase (Human immunodeficiency virus 1, UniProt Q72547). As to the kind of experiment: Inhibition of recombinant wild-type HIV-1 3B reverse transcriptase p66/p51 RNA-dependent DNA polymerase activity expressed in Escherichia coli JM109 assessed as reduction in dTTP incorporation using poly(rA)/oligo(dT)16 as template/primer after 40 mins by PicoGreen dye based spectrofluorometric analysis.

Data set [5] is described as follows: Cytotoxicity against human MT4 cells after 5 days by MTT assay. Type of data set: cell-based. For orientation: Tetrazolium assays rely on reduction of a dye to a coloured formazan, in cell work by metabolically active cells.

Active and inactive are the calls of the source. The calls are words filed in the database; no cut-off is given here.

A word on the EC50: it is the concentration giving half of the maximal effect. The term IC50 denotes the concentration that gives 50% inhibition. The CC50 is the concentration giving 50% cytotoxicity. Read a low CC50 as harm at low concentration. With `Cc1cc(C)cc(S(=O)(=O)n2c(SCC(=O)Nc3ccccc3C)nc3ccccc32)c1`, the EC50 in data set [1] was 0.235 µM. Also, the selectivity ratio in data set [2] was determined as 27. Moreover, the result in data set [3] was inactive. In addition, the IC50 in data set [4] came to 0.222 µM. For the same molecule, it took 6.15 µM to reach half-maximal cytotoxicity in data set [5] (CC50 at 120 h).
For `COC(=O)c1ccc(NC(=O)COc2nc3ccccc3n2S(=O)(=O)c2cc(C)cc(C)c2)c(Cl)c1`, in that order: 0.79 µM, 151, “inactive”, 5.45 µM and 119 µM.
For `Cc1ccc(NC(=O)CSc2nc3ccccc3n2S(=O)(=O)c2cc(C)cc(C)c2)cc1`, in that order: 0.094 µM, 31, “inactive”, 0.091 µM and 2.97 µM.
For `Cc1cc(C)cc(S(=O)(=O)n2c(SCC(=O)Nc3ccc(C(=O)O)cc3)nc3ccccc32)c1`, in that order: 0.2 µM, 577, “inactive”, 0.13 µM and 115 µM.
Take `Cc1cc(C)cc(S(=O)(=O)n2c(SCC(=O)Nc3ccccc3S(C)(=O)=O)nc3ccccc32)c1`: the EC50 in data set [1] is at least 9.44 µM. Moreover, in data set [2], the selectivity ratio is under 1. Moreover, in data set [3], the result was inactive. Further, the IC50 in data set [4] was 60.6 µM. Further, half-maximal cytotoxicity in data set [5] (CC50 at 120 h) was put at 9.31 µM.
With `O=C1Nc2ccc(Cl)cc2[C@@](C#CC2CC2)(C(F)(F)F)O1` [EFAVIRENZ], the 50% cytotoxic concentration (CC50) at 120 h in data set [5] is over 6.33 µM.
Regarding `Cc1cc(C)cc(S(=O)(=O)n2c(SCC(=O)Nc3ccc(S(C)(=O)=O)cc3Cl)nc3ccccc32)c1`, the selectivity ratio in data set [2] stood at 5540. Moreover, the CC50 at 120 h in data set [5] was at least 222 µM.
Regarding `Cc1cc(C)cc(S(=O)(=O)n2c(SCC(=O)Nc3ccc(S(C)(=O)=O)cc3)nc3ccccc32)c1`, the EC50 in data set [1] is 0.028 µM. In addition, the selectivity ratio in data set [2] came to 385. In data set [3], the result was inactive. Moreover, the IC50 in data set [4] worked out at 0.047 µM. The molecule also displayed a CC50 at 120 h in data set [5] of 10.6 µM.
`Cc1cc(C)cc(S(=O)(=O)n2c(SCC(=O)Nc3ccccc3C(=O)O)nc3ccccc32)c1`: the EC50 in data set [1] came to 6.83 µM. In addition, in data set [2], the selectivity ratio came out at 4. Further, in data set [3], the outcome was inactive. In addition, the IC50 in data set [4] is 21.3 µM. The same molecule returned a CC50 at 120 h in data set [5] of 25.2 µM.
`Cc1cc(C)cc(S(=O)(=O)n2c(SCC(=O)Nc3ccc(S(N)(=O)=O)cc3Cl)nc3ccccc32)c1`: the outcome in data set [3] was inactive.
With `Cc1ccnc2c1NC(=O)c1cccnc1N2C1CC1` [NEVIRAPINE], in data set [5], the CC50 at 120 h was over 15 µM.
With `Cc1cc(C)cc(S(=O)(=O)n2c(OCC(=O)Nc3ccccc3Br)nc3ccccc32)c1`, the EC50 in data set [1] was 1.55 µM. Further, in data set [2], the selectivity ratio is over 157. Moreover, in data set [3], the result was inactive. In data set [4], the IC50 stood at 15.7 µM. The same molecule returned a CC50 at 120 h in data set [5] of over 243 µM.
Take `Cc1cc(C)cc(S(=O)(=O)n2c(OCC(=O)Nc3ccccc3Cl)nc3ccccc32)c1`: the 50% effective concentration (EC50) in data set [1] amounted to 1.09 µM. The selectivity ratio in data set [2] turned out to be 155. Moreover, the outcome in data set [3] was inactive. In addition, the IC50 in data set [4] worked out at 47.3 µM. Half-maximal cytotoxicity in data set [5] (CC50 at 120 h) was put at 169 µM.
Regarding `Cc1cc(C)cc(S(=O)(=O)n2c(SCC(=O)Nc3ccccc3Br)nc3ccccc32)c1`, the selectivity ratio in data set [2] is over 3930. In data set [3], the outcome was inactive. Besides, the CC50 at 120 h in data set [5] is at least 236 µM.
As for `Cc1cc(C)cc(S(=O)(=O)n2c(SCC(=O)Nc3ccccc3Cl)nc3ccccc32)c1`, the half-maximal effective concentration (EC50) in data set [1] was found to be 0.88 µM. For the same molecule, the outcome in data set [3] was inactive.
For the molecule `Cc1cc(C)cc(S(=O)(=O)n2c(SCC(=O)Nc3ccc(S(N)(=O)=O)cc3)nc3ccccc32)c1`, the EC50 in data set [1] was determined as 0.024 µM. In addition, the selectivity ratio in data set [2] amounted to 1290. Also, in data set [3], the outcome was inactive. Moreover, the IC50 in data set [4] came to 0.05 µM. The molecule further had a CC50 at 120 h in data set [5] of 30.9 µM.
For `Cc1cc(C)cc(S(=O)(=O)n2c(OCC(=O)Nc3ccc(S(N)(=O)=O)cc3Cl)nc3ccccc32)c1`, in that order: 0.25 µM, over 908, “inactive”, 5.84 µM and over 227 µM.
For `Cc1cc(C)cc(S(=O)(=O)n2c(OCC(=O)Nc3ccc(S(C)(=O)=O)cc3Cl)nc3ccccc32)c1`, in that order: 0.12 µM, over 1890, “inactive”, 0.76 µM and over 228 µM.
The corresponding values for `Cc1cc(C)cc(S(=O)(=O)n2c(SCC(=O)Nc3ccccc3S(N)(=O)=O)nc3ccccc32)c1` are 2.72 µM, 9, “inactive”, 7.68 µM and 25 µM.
Consider `COC(=O)c1ccc(NC(=O)CSc2nc3ccccc3n2S(=O)(=O)c2cc(C)cc(C)c2)cc1`, for which the EC50 in data set [1] was 0.051 µM. Besides, in data set [2], the selectivity ratio is 196. In addition, the result in data set [3] was inactive. For the same molecule, the IC50 in data set [4] was found to be 0.088 µM. In addition, in data set [5], the CC50 at 120 h is 10 µM.
For `COC(=O)c1ccccc1NC(=O)CSc1nc2ccccc2n1S(=O)(=O)c1cc(C)cc(C)c1`, in that order: at least 1.06 µM, under 5, “inactive”, 15.7 µM and 5.22 µM.
In the case of `COC(=O)c1ccc(NC(=O)CSc2nc3ccccc3n2S(=O)(=O)c2cc(C)cc(C)c2)c(Cl)c1`, the result in data set [3] was inactive. The CC50 at 120 h in data set [5] was 145 µM.
